# Reference: ChEMBL document CHEMBL5537193, “Multitargeting HDAC Inhibitors Containing a RAS/RAF Protein Interfering Unit” (J Med Chem, 2024)
# Calls of active or inactive are those of the source. The rule behind the calls is not given here.
# Key:
# A549 = assay: cells; details: Homo sapiens, A549, 72 h
# Description: Cytotoxicity against human A549 cells assessed as inhibition of cell growth incubated for 72 hrs by MTT assay
# L02 = assay: cells; details: Homo sapiens, L02, 72 h
# Description: Cytotoxicity against human L02 cells assessed as inhibition of cell growth incubated for 72 hrs by MTT assay
# NCI-H1975 = assay: cells; details: Homo sapiens, NCI-H1975, 72 h
# Description: Cytotoxicity against human NCI-H1975 cells assessed as inhibition of cell growth incubated for 72 hrs by MTT assay
# SGC-7901 = assay: cells; details: Homo sapiens, SGC-7901, 72 h
# Description: Cytotoxicity against human SGC-7901 cells assessed as inhibition of cell growth incubated for 72 hrs by MTT assay
# A-431 = assay: cells; details: Homo sapiens, A-431, 72 h
# Description: Cytotoxicity against human A-431 cells assessed as inhibition of cell growth incubated for 72 hrs by MTT assay
# MCF7 = assay: cells; details: Homo sapiens, MCF7, 72 h
# Description: Cytotoxicity against human MCF7 cells assessed as inhibition of cell growth incubated for 72 hrs by MTT assay
# HepG2 = assay: cells; details: Homo sapiens, HepG2, 72 h
# Description: Cytotoxicity against human HepG2 cells assessed as inhibition of cell growth incubated for 72 hrs by MTT assay
# PANC-1 [1] = assay: Induction of apoptosis in human PANC-1 cells assessed as increase in cleaved caspase-9 expression level at 2 uM incubated for 24 hrs by Western blot analysis; type: functional, cell-based
# PANC-1 [2] = assay: Induction of apoptosis in human PANC-1 cells assessed as increase in Cytochrome C expression level at 2 uM incubated for 24 hrs by Western blot analysis; type: functional, cell-based
# PANC-1 [3] = assay: Induction of apoptosis in human PANC-1 cells assessed as increase in cleaved caspase-3 expression level at 2 uM incubated for 24 hrs by Western blot analysis; type: functional, cell-based
# PANC-1 [4] = assay: Induction of apoptosis in human PANC-1 cells assessed as increase in cleaved PARP expression level at 2 uM incubated for 24 hrs by Western blot analysis; type: functional, cell-based
# PANC-1 [5] = assay: Cell cycle arrest in human PANC-1 cells assessed as accumulation of cells at GO-G1 phase at 2 uM incubated for 24 hrs by PI/RNase staining based flow cytometric analysis; type: functional
# PANC-1 [6] = assay: Induction of apoptosis in human PANC-1 cells assessed as apoptotic cells at 2 uM incubated for 24 hrs by flow cytometric analysis relative to control; type: functional
# [7] = biological target: Serine/threonine-protein kinase PLK1 (Homo sapiens, UniProt P53350); assay: Inhibition of PLK1 (unknown origin)
# PANC-1 [8] = assay: Induction of apoptosis in human PANC-1 cells assessed as increase in Bax expression at 2 uM incubated for 24 hrs by Western blot analysis; type: functional, cell-based
# HT-29 [9] = assay: Induction of apoptosis in human HT-29 cells assessed as apoptotic ratio at 2 uM incubated for 24 hrs by flow cytometric analysis; type: functional
# [10] = Metabolic stability in human liver microsomes assessed as intrinsic clearance at 1 uM measured upto 40 mins by LC-MS/MS analysis; type: ADME, Microsome; details: read-out: CLH
# HT-29 [11] = assay: Induction of apoptosis in human HT-29 cells incubated for 24 hrs by flow cytometric analysis; type: functional, cell-based; details: dose 1-4 µM
# [12] = Metabolic stability in mouse liver microsomes assessed as intrinsic clearance at 1 uM measured upto 40 mins by LC-MS/MS analysis; type: ADME, Microsome; details: read-out: CLH
# MV4-11 = assay: cells; details: Homo sapiens, MV4-11, 72 h
# Description: Cytotoxicity against human MV4-11 cells assessed as inhibition of cell growth incubated for 72 hrs by MTT assay
# HT-29 [13] = assay: Effect on alpha-tubulin expression in human HT-29 cells at 2 uM incubated for 24 hrs by Western blot analysis; type: functional, cell-based
# [14] = Metabolic stability in rat liver microsomes assessed as intrinsic clearance at 1 uM measured upto 40 mins by LC-MS/MS analysis; type: ADME, Microsome; details: read-out: CLH
# HT-29 [15] = assay: Effect on MEK protein expression in human HT-29 cells at 2 uM incubated for 24 hrs by Western blot analysis; type: functional, cell-based
# HT-29 [16] = assay: cells; details: Homo sapiens, HT-29, 72 h
# Description: Cytotoxicity against human HT-29 cells assessed as inhibition of cell growth incubated for 72 hrs by MTT assay
# PANC-1 [17] = assay: Inhibition of MAPK signaling pathway in human PANC-1 cells assessed as inhibition of C-RAF phosphorylation at Ser338 residue at 2 uM incubated for 24 hrs by Western blot analysis; type: cell-based
# HT-29 [18] = assay: Effect on RAS protein expression in human HT-29 cells at 2 uM incubated for 24 hrs by Western blot analysis; type: functional, cell-based
# HT-29 [19] = assay: Effect on ERK1/2 protein expression in human HT-29 cells at 2 uM incubated for 24 hrs by Western blot analysis; type: functional, cell-based
# PANC-1 [20] = assay: Effect on ERK1/2 protein expression in human PANC-1 cells at 2 uM incubated for 24 hrs by Western blot analysis; type: functional, cell-based
# [21] = Metabolic stability in mouse liver microsomes assessed as half-life at 1 uM measured upto 40 mins by LC-MS/MS analysis; type: ADME, Microsome
# Histone deacetylase 4 = Histone deacetylase 4 (Homo sapiens, UniProt P56524); assay: Inhibition of HDAC4 (unknown origin)
# HT-29 [22] = assay: Inhibition of MAPK signaling pathway in human HT-29 cells assessed as inhibition of ERK1/2 phosphorylation at 2 uM incubated for 24 hrs by Western blot analysis; type: cell-based
# PANC-1 [23] = assay: Effect on Histone H3 expression in human PANC-1 cells at 2 uM incubated for 24 hrs by Western blot analysis; type: functional, cell-based
# PANC-1 [24] = assay: Inhibition of MAPK signaling pathway in human PANC-1 cells assessed as inhibition of ERK1/2 phosphorylation at 2 uM incubated for 24 hrs by Western blot analysis; type: cell-based
# PANC-1 [25] = assay: Effect on alpha-tubulin expression in human PANC-1 cells at 2 uM incubated for 24 hrs by Western blot analysis; type: functional, cell-based
# PANC-1 [26] = assay: Inhibition of MAPK signaling pathway in human PANC-1 cells assessed as inhibition of MEK phosphorylation at 2 uM incubated for 24 hrs by Western blot analysis; type: cell-based
# [27] = Metabolic stability in human liver microsomes assessed as half-life at 1 uM measured upto 40 mins by LC-MS/MS analysis; type: ADME, Microsome
# PANC-1 [28] = assay: Cell cycle arrest in human PANC-1 cells assessed as accumulation of cells at G2-M phase at 2 uM incubated for 24 hrs by PI/RNase staining based flow cytometric analysis; type: functional
# K562 = assay: cells; details: Homo sapiens, K562, 72 h
# Description: Cytotoxicity against human K562 cells assessed as inhibition of cell growth incubated for 72 hrs by MTT assay
# PANC-1 [29] = assay: cells; details: Homo sapiens, PANC-1, 72 h
# Description: Cytotoxicity against human PANC-1 cells assessed as inhibition of cell growth incubated for 72 hrs by MTT assay
# [30] = Metabolic stability in rat liver microsomes assessed as half-life at 1 uM measured upto 40 mins by LC-MS/MS analysis; type: ADME, Microsome
# PANC-1 [31] = assay: Effect on RAS protein expression in human PANC-1 cells at 2 uM incubated for 24 hrs by Western blot analysis; type: functional, cell-based
# HT-29 [32] = assay: Effect on Histone H3 expression in human HT-29 cells at 2 uM incubated for 24 hrs by Western blot analysis; type: functional, cell-based
# PANC-1 [33] = assay: Effect on MEK protein expression in human PANC-1 cells at 2 uM incubated for 24 hrs by Western blot analysis; type: functional, cell-based
# HT-29 [34] = assay: Inhibition of MAPK signaling pathway in human HT-29 cells assessed as inhibition of MEK phosphorylation at 2 uM incubated for 24 hrs by Western blot analysis; type: cell-based
# PANC-1 [35] = assay: Induction of apoptosis in human PANC-1 cells incubated for 24 hrs by flow cytometric analysis; type: functional, cell-based; details: dose 1-4 µM
# HT-29 [36] = assay: Cell cycle arrest in human HT-29 cells assessed as accumulation of cells at G2-M phase at 2 uM incubated for 24 hrs by PI/RNase staining based flow cytometric analysis; type: functional
# HT-29 [37] = assay: Inhibition of MAPK signaling pathway in human HT-29 cells assessed as inhibition of C-RAF phosphorylation at Ser338 residue at 2 uM incubated for 24 hrs by Western blot analysis; type: cell-based
# Histone deacetylase 9 = Histone deacetylase 9 (Homo sapiens, UniProt Q9UKV0); assay: Inhibition of HDAC9 (unknown origin)
# Chain of Histone deacetylase 9 (Q9UKV0 whole entry): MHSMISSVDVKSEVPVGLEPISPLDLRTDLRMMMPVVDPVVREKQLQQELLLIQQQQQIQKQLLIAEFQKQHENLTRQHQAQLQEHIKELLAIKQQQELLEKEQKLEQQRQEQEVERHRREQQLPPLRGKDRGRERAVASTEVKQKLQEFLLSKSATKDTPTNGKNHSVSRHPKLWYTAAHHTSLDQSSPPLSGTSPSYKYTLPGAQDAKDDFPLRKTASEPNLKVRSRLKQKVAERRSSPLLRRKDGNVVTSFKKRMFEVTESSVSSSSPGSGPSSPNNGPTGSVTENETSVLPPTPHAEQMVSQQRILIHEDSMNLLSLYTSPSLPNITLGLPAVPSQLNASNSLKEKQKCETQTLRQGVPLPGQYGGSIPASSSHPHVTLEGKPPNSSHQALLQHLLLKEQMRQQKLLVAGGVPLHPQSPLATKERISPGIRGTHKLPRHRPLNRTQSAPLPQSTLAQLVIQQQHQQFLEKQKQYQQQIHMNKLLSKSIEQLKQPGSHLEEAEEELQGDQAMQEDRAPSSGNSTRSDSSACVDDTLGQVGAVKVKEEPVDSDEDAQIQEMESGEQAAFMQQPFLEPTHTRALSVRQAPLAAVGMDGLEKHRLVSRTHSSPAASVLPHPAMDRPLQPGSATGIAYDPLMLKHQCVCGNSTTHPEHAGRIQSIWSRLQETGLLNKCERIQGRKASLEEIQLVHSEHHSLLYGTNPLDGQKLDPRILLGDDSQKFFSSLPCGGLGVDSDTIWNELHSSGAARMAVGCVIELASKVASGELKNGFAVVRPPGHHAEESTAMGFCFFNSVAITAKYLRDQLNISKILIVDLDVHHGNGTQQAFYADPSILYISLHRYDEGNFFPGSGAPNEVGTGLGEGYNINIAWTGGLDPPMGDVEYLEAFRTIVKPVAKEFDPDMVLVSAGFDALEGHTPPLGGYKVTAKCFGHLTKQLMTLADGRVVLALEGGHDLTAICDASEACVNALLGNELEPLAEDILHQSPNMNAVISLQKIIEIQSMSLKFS
# Chain of Serine/threonine-protein kinase PLK1 (P53350 whole entry): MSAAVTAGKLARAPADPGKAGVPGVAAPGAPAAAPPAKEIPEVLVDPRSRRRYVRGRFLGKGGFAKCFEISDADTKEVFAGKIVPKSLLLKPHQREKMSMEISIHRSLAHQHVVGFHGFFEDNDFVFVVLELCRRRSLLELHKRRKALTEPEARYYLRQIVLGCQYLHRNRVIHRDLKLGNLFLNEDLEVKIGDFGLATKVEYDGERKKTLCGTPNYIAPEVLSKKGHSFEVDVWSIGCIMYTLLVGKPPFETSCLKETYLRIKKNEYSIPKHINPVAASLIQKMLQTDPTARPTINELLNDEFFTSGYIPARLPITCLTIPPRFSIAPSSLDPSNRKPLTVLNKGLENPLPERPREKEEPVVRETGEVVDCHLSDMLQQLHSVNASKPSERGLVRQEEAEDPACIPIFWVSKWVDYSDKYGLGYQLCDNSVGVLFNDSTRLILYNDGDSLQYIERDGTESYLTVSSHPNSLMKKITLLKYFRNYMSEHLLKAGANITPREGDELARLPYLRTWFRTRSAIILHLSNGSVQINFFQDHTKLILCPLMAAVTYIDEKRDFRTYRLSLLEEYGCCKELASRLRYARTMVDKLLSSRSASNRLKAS
# Chain of Histone deacetylase 4 (P56524 whole entry): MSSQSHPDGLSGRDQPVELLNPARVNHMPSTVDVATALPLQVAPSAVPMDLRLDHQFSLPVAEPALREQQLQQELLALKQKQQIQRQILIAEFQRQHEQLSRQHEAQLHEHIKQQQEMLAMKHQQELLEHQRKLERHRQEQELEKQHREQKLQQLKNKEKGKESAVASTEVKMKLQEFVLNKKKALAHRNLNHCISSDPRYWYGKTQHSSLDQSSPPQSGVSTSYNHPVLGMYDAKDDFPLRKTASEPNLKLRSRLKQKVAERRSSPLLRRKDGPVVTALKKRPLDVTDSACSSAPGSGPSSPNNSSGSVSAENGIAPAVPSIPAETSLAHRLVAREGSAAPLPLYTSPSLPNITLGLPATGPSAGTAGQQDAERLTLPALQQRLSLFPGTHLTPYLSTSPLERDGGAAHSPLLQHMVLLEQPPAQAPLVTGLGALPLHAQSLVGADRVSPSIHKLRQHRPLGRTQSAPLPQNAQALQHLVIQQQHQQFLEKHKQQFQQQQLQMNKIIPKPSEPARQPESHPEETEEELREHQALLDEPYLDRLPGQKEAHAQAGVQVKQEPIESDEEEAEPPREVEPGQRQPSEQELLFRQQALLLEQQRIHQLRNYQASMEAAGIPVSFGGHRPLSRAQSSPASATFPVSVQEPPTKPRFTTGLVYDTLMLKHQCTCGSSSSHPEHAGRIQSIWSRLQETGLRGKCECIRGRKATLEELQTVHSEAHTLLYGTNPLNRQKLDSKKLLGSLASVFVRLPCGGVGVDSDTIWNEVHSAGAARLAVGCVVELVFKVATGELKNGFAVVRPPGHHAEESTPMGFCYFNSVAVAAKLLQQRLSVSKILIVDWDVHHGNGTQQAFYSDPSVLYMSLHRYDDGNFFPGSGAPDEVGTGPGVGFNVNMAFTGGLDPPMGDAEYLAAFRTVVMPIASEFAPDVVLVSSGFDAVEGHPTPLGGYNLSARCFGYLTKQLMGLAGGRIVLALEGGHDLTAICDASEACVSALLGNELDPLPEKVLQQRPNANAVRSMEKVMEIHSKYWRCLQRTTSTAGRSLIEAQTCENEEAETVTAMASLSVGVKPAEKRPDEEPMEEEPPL
compound,measurement,setting,value
COc1cc(OC)c(/C=C/S(=O)(=O)Cc2ccc(OC)c(NC(=O)CCCC(=O)Nc3ccccc3N)c2)c(OC)c1,IC50,A549,35.5 µM
same,IC50,L02,> 40 µM
same,IC50,NCI-H1975,8.45 µM
same,IC50,SGC-7901,31.9 µM
same,IC50,A-431,4.11 µM
same,IC50,MCF7,17.7 µM
same,IC50,HepG2,18.6 µM
O=C(CCCCCCC(=O)Nc1ccccc1)NO [VORINOSTAT],Activity,PANC-1 [1],Active
same,Activity,PANC-1 [2],Active
same,Activity,PANC-1 [3],Active
same,Activity,PANC-1 [4],Active
same,Activity,PANC-1 [5],Active
same,Activity,PANC-1 [6],20.5%
same,IC50,[7],1.6 µM
same,Activity,PANC-1 [8],Active
same,IC50,SGC-7901,2.89 µM
same,Activity,HT-29 [9],21.4%
COc1cc(OC)c(/C=C/S(=O)(=O)Cc2ccc(OC)c(NCC(=O)Nc3ccccc3N)c2)c(OC)c1,IC50,A549,3.67 µM
same,IC50,L02,> 40 µM
same,IC50,NCI-H1975,2.18 µM
same,IC50,SGC-7901,4.98 µM
same,IC50,A-431,4.14 µM
same,IC50,MCF7,4.94 µM
same,IC50,HepG2,4.75 µM
COc1cc(OC)c(/C=C/S(=O)(=O)Cc2ccc(OC)c(NC(=O)CCC(=O)NO)c2)c(OC)c1,CLint scaled at 1 µM,[10],2.17 L/h/kg
same,IC50,A549,0.21 µM
same,Activity,HT-29 [11],Dose-Dependent Effect
same,IC50,L02,> 40 µM
same,CLint scaled at 1 µM,[12],22.8 L/h/kg
same,Activity,PANC-1 [1],Active
same,IC50,MV4-11,0.15 µM
same,Activity,HT-29 [13],inactive
same,CLint scaled at 1 µM,[14],4.21 L/h/kg
same,Activity,HT-29 [15],inactive
same,Activity,PANC-1 [2],Active
same,Activity,PANC-1 [3],Active
same,IC50,HT-29 [16],0.12 µM
same,Activity,PANC-1 [4],Active
same,inhibition,PANC-1 [17],Active
same,Activity,HT-29 [18],inactive
same,Activity,HT-29 [19],inactive
same,Activity,PANC-1 [20],inactive
same,Activity,PANC-1 [6],55.1%
same,half-life at 1 µM,[21],14.4 min
same,IC50,Histone deacetylase 4,0.0841 µM
same,IC50,[7],0.0205 µM
same,inhibition,[7],Dose-Dependent Effect
same,inhibition,HT-29 [22],Active
same,Activity,PANC-1 [23],inactive
same,inhibition,PANC-1 [24],Active
same,Activity,PANC-1 [25],inactive
same,IC50,NCI-H1975,0.08 µM
same,inhibition,PANC-1 [26],Active
same,half-life at 1 µM,[27],48 min
same,Activity,PANC-1 [28],Active
same,Activity,PANC-1 [8],Active
same,IC50,K562,0.02 µM
same,IC50,PANC-1 [29],0.11 µM
same,half-life at 1 µM,[30],35.4 min
same,Activity,PANC-1 [31],inactive
same,Activity,HT-29 [32],inactive
same,Activity,PANC-1 [33],inactive
same,inhibition,HT-29 [34],Active
same,IC50,SGC-7901,0.26 µM
same,IC50,A-431,0.33 µM
same,Activity,PANC-1 [35],Dose-Dependent Effect
same,Activity,HT-29 [36],Active
same,inhibition,HT-29 [37],Active
same,Activity,HT-29 [9],46.2%
same,IC50,MCF7,0.24 µM
same,IC50,HepG2,1.68 µM
same,IC50,Histone deacetylase 9,0.0913 µM
COc1cc(OC)c(/C=C/S(=O)(=O)Cc2ccc(OC)c(NC(=O)CCCCC(=O)NO)c2)c(OC)c1,IC50,A549,8.56 µM
same,IC50,L02,> 40 µM
same,IC50,NCI-H1975,9.48 µM
same,IC50,SGC-7901,12.3 µM
same,IC50,A-431,18.8 µM
same,IC50,MCF7,9.68 µM
same,IC50,HepG2,29.1 µM
COc1cc(OC)c(/C=C/S(=O)(=O)Cc2ccc(OC)c(NCCC(=O)Nc3ccccc3N)c2)c(OC)c1,IC50,A549,11.3 µM
same,IC50,L02,> 40 µM
same,IC50,NCI-H1975,5.11 µM
same,IC50,SGC-7901,13.2 µM
same,IC50,A-431,8.69 µM
same,IC50,MCF7,12.6 µM
same,IC50,HepG2,7.3 µM
COc1cc(OC)c(/C=C/S(=O)(=O)Cc2ccc(OC)c(NC(=O)CCCCC(=O)Nc3ccccc3N)c2)c(OC)c1,IC50,A549,16.7 µM
same,IC50,L02,> 40 µM
same,IC50,NCI-H1975,18.8 µM
same,IC50,SGC-7901,17.2 µM
same,IC50,A-431,20.6 µM
same,IC50,MCF7,11.7 µM
same,IC50,HepG2,27.4 µM
